# From patent US8440637B2, “Combination treatment for the treatment of hepatitis C virus infection” (priority 2007, dated 2013)
# Strand notation (5' to 3'): a small letter for the sugar, then the base; units joined by * are phosphorothioate-linked, units joined directly phosphodiester-linked; [ ] holds rarer units or linkages, { } end groups; capitals alone tell only the bases. l = locked nucleic acid (LNA); [5mC] = 5-methylcytosine; d = 2'-deoxy (DNA)
# Columns and labels:
# miR-122a [1] = test: Melting temperature (Tm) of LNA anti-miR/miR-122a RNA duplex; format: physicochemical, human; details: for Tm (° C.): Table 2, towards synthetic miR-122a RNA oligonucleotide with phosphorothioate linkages, PS backbone; for Tm, oligo to miR-122 RNA complement: miR-122a
# Description: The melting temperatures were assessed towards the mature miR-122a sequence, using a synthetic miR-122a RNA oligonucleotide with phosphorothioate linkaged.
# (§1) The LNA anti-miR/miR-122a oligo duplex was diluted to 3 μM in 500 μl RNase free H2O, which was then mixed with 500 μl 2× dimerization buffer (final oligo/duplex conc. 1.5 μM, 2× Tm buffer: 200 mM NaCl, 0.2 mM EDTA, 20 mM NaP, pH 7.0, DEPC treated to remove RNases). The mix was first heated to 95 degrees for 3 minutes, then allowed to cool at room temperature (RT) for 30 minutes.
# (§2) Following RT incubation Tm was measured on Lambda 40 UV/VIS Spectrophotometer with peltier temperature progammer PTP6 using PE Templab software (Perkin Elmer). The temperature was ramped up from 20° C. to 95° C. and then down again to 20° C., continuously recording absorption at 260 nm. First derivative and local maximums of both the melting and annealing was used to assess melting/annealing point (Tm), both should give similar/same Tm values. For the first derivative 91 points was used to calculate the slope.
# 122R, DNA = test: Melting temperature (Tm) of oligo against DNA complement; format: physicochemical
# Description: as §1, §2
# However, in one embodiment the Tm may be made with a complementary DNA ([…]) molecule. Typically the Tm measured against a DNA complementary molecule is about 10° C. lower than the Tm with an equivalent RNA complement. The Tm measured using the DNA complement may therefore be used in cases where the duplex has a very high Tm.
# miR-122 = test: microRNA specific northern blot of mouse liver RNA; format: in vivo
# Description: We decided to assess the effect of SEQ ID NO:63 on miR-122 miRNA levels in the livers of SEQ ID NO: 63-treated mice. The LNA-antimiRs SEQ ID NO:63 and SEQ ID NO: 61 were administered into mice by three i.p. injections on every second day over a six-day-period at indicated doses followed by sacrificing the animals 48 hours after the last dose. Total RNA was extracted from the livers. miR-122 levels were assessed by microRNA specific northern blot (FIG. 6)
# The liver RNA was also subjected to microRNA Northern blot. Shown in FIG. 13 is a membrane probed with a miR-122a specific probe (upper panel) and re-probed with a Let-7 specific probe (lower panel). With the miR-122 probe, two bands could be detected, one corresponding to mature miR-122 and one corresponding to a duplex between SEQ ID NO: 61 and miR-122.
# Preparation of northern membranes was done as described in Sempere et al. 2002, except for the following changes: Total RNA, 10 μg per lane, in formamide loading buffer (47.5% formamide, 9 mM EDTA, 0.0125% Bromophenol Blue, 0.0125% Xylene Cyanol, 0.0125% SDS) was loaded onto a 15% denaturing Novex TBE-Urea polyacrylamide gel (Invitrogen) without preheating the RNA. The RNA was electrophoretically transferred to a GeneScreen plus Hybridization Transfer Membrane (PerkinElmer) at 200 mA for 35 min. Membranes were probed with 32P-labelled LNA-modified oligonucleotides complimentary to the mature microRNAs*. The LNA oligonucleotides were labelled and hybridized to the membrane as described in (Válóczi et al. 2004) except for the following changes: The prehybridization and hybridization solutions contained 50% formamide, 0.5% SDS, 5×SSC, 5×Denhardt's solution and 20 μg/ml sheared denatured herring sperm DNA. Hybridizations were performed at 45° C. The blots were visualized by scanning in a Storm 860 scanner. The signal of the background membrane was subtracted from the radioactive signals originating from the miRNA bands. The values of the miR-122 signals were corrected for loading differences based on the let-7a signal. […]
# miR-122a [2] = test: Plasma cholesterol in LNA anti-miR122 treated mice; format: in vivo, mouse; details: Day 6; i.p. on day 0, 2 and 4
# Description: In vivo study: Ten groups of animals (female C57/BL6; 3 mice per group) were treated in the following manner. Group 1 animals were injected with 0.2 ml saline by i.p. on day 0, day 2 and day 4. Groups 2-10 were dosed by i.p. with three different conc. (25 mg/kg, 5 mg/kg and 1 mg/kg) of either LNA antimiR-122a/SEQ ID NO: 61 (group 2-4), LNA antimir-122a/SEQ ID NO: 66 (group 5-7) or LNA antimir-122a/SEQ ID NO: 63 (group 8-10); the LNA antimir-122a sequences are given in the Table 1. All three LNA antimiR-122a oligonucleotides target the liver-specific miR-122a. The doses were calculated from the Day 0 body weights of each animal.
# The animals were sacrificed 48 hours after last dose (Day 6), retro-orbital blood was collected in tubes containing EDTA and the plasma fraction harvested and stored frozen −80° C. for cholesterol analysis. At sacrifice livers were dissected and one portion was cut into 5 mm cubes and immersed in 5 volumes of ice-cold RNAlater. […]
# Total cholesterol level was measured in plasma using a colometric assay Cholesterol CP from ABX Pentra. Cholesterol was measured following enzymatic hydrolysis and oxidation (2,3). […] 250 μl reagent was added and within 5 min the cholesterol content measured at a wavelength of 540 nm. […] The cholesterol level was determined by subtraction of the background and presented relative to the cholesterol levels in plasma of saline treated mice.
# HCV replicon (NNeo/C-5B) = test: HCV replication in Huh-7 cells transfected with HCV replicon, Northern blot; format: cell-based, Hepatitis C virus; details: Huh-7 with HCV replicon; 48 hours; compared to mock and mismatch control
# Description: We assess the efficacy of SEQ ID NO: 63 reducing HCV replication in the Huh-7 based cell model. Preliminary data on SEQ ID NO: 63 along with its truncated version SEQ ID NO: 66 (13-mer LNA-antimiR) and 4 nt mismatch control from inhibiting HCV replication in the Huh-7 cell line transfected with a HCV replicon (NNeo/C-5B). The different LNA-antimiR molecules along with a 2′ OMe antisense and scramble oligonucleotide were transfected into Huh-7 cells, HCV was allowed to replicate for 48 hours. Total RNA samples extracted from the Huh-7 cells were subjected to Northern blot analysis.
Substance,Tm (° C.) (miR-122a [1]) [°C],"Tm, oligo to miR-122 RNA complement (miR-122a [1]) [°C]","Tm, oligo to DNA complement (122R, DNA) [°C]","mature miR-122, small RNA northern blot (in words) (miR-122; liver RNA, let-7a control not altered)",plasma cholesterol compared to saline control (in words) (miR-122a [2]),"blocking of miR-122, northern blot (in words) (miR-122; three i.p. injections every second day, 5 and 25 mg/kg, 48 hours after last dose)","duplex versus mature band on northern blot, comparison (in words) (miR-122; three i.p. injections every second day, 48 hours after last dose)",HCV RNA / inhibition of HCV replication (in words) (HCV replicon (NNeo/C-5B))
"5′-ccAttGtcAcaCtcCa-3′ (antisense CCATTGTCACACTCCA; sugars from the 5' end ddlddlddlddlddld, backbone and methylation of C not given here) [SEQ ID NO: 61]",69,69,57,significantly reduced levels of detectable mature miR-122,,,,
"5′-CcAttGTcaCaCtCC-3′ (antisense CCATTGTCACACTCC; sugars from the 5' end ldlddllddldldll, backbone and methylation of C not given here) [SEQ ID NO: 63]",78,79,66,,markedly lowered level of plasma cholesterol,completely blocked miR-122,equally efficient at 1 mg/kg as SEQ ID NO: 61SEQ ID NO: 61 at 25 mg/kg,significant reduction of HCV RNA
5′-AttGTcaCaCtCC-3′ (antisense lA*dT*dT*lG*lT*dC*dA*l[5mC]*dA*l[5mC]*dT*l[5mC]*l[5mC]) [SEQ ID NO: 66],,74,,,markedly lowered level of plasma cholesterol,,,comparable efficacy with SEQ ID NO: 63
